{"source": "ChEMBL document CHEMBL1142110", "about": "“Tenacibactins A-D, hydroxamate siderophores from a marine-derived bacterium, Tenacibaculum sp. A4K-17” (J Nat Prod, 2007)"}
{"assay": "Iron-chelating activity after 4 hrs by CAS assay", "assay_type": "functional", "units": {"ED50": "µM"}}
{"smiles": "CC(C)CC(=O)N(O)CCCCCNC(=O)CCC(=O)N(O)CCCCCNC(=O)CCC(=O)O", "ED50": 110}
{"smiles": "CC(=O)N(O)CCCCCNC(=O)CCC(=O)N(O)CCCCCNC(=O)CCC(=O)N(O)CCCCCN", "ED50": 120}
{"smiles": "COC(=O)CCC(=O)NCCCCCN(O)C(=O)CC(C)C", "ED50": "> 1000"}
{"smiles": "CC(C)CC(=O)N(O)CCCCCNC(=O)CCC(=O)O", "ED50": "> 1000"}
{"smiles": "CC(C)CC(=O)N(O)CCCCCNC(=O)CCC(=O)N(O)CCCCCNC(=O)CCC(=O)N(O)CCCCCN", "ED50": 115}
